Measurements published in patent publication US20230097157A1, “Bicyclic Pyridin-2-one and pyrimidin-4-one Derivatives Useful As a Factor XIa Inhibitors” (Janssen Pharmaceutica NV, priority 2021, published 2023).
Read-outs that look alike come from different tables or passages of the source.

Columns and labels:
[1] = target: human plasma kallikrein (Homo sapiens, UniProt P03952); assay: Kallikrein inhibition assay (FLINT) utilizing a quenched AMC peptide substrate Z-Gly-Pro-Arg-AMC; format: biochemical; settings: kinetic (KIN) reads, read-out: Kallikrein KIN Inh IC50
Sequence of human plasma kallikrein (P03952 391-638 limits assumed): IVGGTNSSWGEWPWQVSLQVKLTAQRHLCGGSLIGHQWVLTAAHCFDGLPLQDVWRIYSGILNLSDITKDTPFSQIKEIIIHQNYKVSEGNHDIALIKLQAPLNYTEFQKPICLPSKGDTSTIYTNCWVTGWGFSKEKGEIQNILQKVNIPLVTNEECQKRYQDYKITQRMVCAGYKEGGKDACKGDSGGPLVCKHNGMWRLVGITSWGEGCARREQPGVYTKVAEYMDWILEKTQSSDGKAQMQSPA
Sequence of human plasma kallikrein (P03952 20-390 partner limits assumed): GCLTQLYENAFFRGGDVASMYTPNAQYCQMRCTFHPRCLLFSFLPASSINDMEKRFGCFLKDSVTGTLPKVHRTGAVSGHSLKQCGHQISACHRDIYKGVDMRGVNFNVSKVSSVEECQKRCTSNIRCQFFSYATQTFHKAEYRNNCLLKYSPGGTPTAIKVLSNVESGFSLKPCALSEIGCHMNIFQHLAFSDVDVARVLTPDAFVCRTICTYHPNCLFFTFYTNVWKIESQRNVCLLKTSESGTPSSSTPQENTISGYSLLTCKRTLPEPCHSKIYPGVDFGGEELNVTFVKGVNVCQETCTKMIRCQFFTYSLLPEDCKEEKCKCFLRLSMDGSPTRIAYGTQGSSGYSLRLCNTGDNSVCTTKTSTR
Description: Biological Example 2: Kallikrein Inhibition Assay Utilizing a Quenched AMC Peptide Substrate A fluorescence intensity (FLINT) based assay was used to monitor inhibition of human plasma kallikrein. The peptide substrate, Z-Gly-Pro-Arg-AMC (Purchased from Bachem; Catalog #I-1150) was chosen based on its relatively low KM for kallikrein which enables running the assay at lower substrate concentrations to control background fluorescence.
The Kallikrein FLINT assay was used with the following Z-Gly-Pro-Arg-AMC assay buffer: 50 mM Tris, pH 7.5, 100 mM NaCl, 5 mM CaCl2, 0.1 mg/mL BSA, 0.03% CHAPS. Assay buffer was prepared by mixing all ingredients fresh. 2× Z-Gly-Pro-Arg-AMC peptide substrate was prepared by diluting 10 mM stock into 1× assay buffer for a 100 μM working concentration (50 μM final concentration). The 2× kallikrein stock solution was prepared by diluting 14.76 μM stock in 1× assay buffer for a 4 nM working stock solution (2 nM final concentration).
Test compound(s) were run in an 11-point, 3-fold serial dilution with a final top compound concentration of 1 μM. Final DMSO in assay was 2%. Plasma kallikrein was pre-incubated for 30-minute with compound and then 50 μM substrate was added to initiate the reaction. The assay was run with kinetic (KIN) reads at 5 min intervals over 30 minutes. The time course was linear using 2 nM kallikrein greater than 30 minutes. More specifically, the assay was run as follows: • 100 nL of 0.1 mM test compound was dispensed into black 384-well non-binding Greiner BioOne 784900 plate for 1 μM final concentration; • 5 μL of 1× assay buffer was dispensed to columns 24 (low control) and 5 μL 2× human kallikrein enzyme solution was dispensed to columns 1-23 (column 23 high control); • the plate was centrifuged with a “cover” plate at 500 rpm for 1 min • the plate was pre-incubated for 30 minutes at room temperature with plate covered; • 5 μL of 2× Z-Gly-Pro-Arg-AMC peptide substrate was dispensed into the entire plate, columns 1-24; • the plate was centrifuged with a “cover” plate at 500 rpm for 1 min; • the plate was read monitoring fluorescence intensity on the BMG PHERAStar at room temperature, using fluorescence module 340 nm/440 nm.
(§1) Percent inhibition (IC50) curves were generated per compound tested, and data was analyzed using a 4-parameter logistic fit using GeneData Screener. The relative fluorescence unit (RFU) values were normalized to percent inhibition using the following equation:
% inhibition=((HC−LC)−(compound−LC)/(HC−LC))*100 where LC—low control=mean signal of […] or 100% inhibition of human kallikrein enzyme; HC—high control=mean signal of […]+Z-Gly-Pro-Arg-AMC peptide substrate with DMSO only.
(§2) An 11-point dose response curve for the test compound(s) was generated using GENDATA to determine IC50 value based on the following equation:
(§3) Y=Bottom+(Top−Bottom)/(1+10^((log IC50−X)*HillSlope)) where Y is the % inhibition in the presence of X inhibitor concentration, Top=high control=mean signal of human kallikrein enzyme+Z-Gly-Pro-Arg-AMC peptide substrate with DMSO only; Bottom=low control−mean signal of no human kallikrein enzyme or 100% inhibition of human kallikrein enzyme; HillSlope−Hill coefficient; and IC50=concentration of compound with 50% inhibition in relation to top/high control.

[2] = target: Factor XIa (Homo sapiens, UniProt P03951); assay: Factor XIa inhibition assay (FLINT) utilizing a fluorophore-quencher pair peptide substrate 5Fam-[…]-K5Tamra; format: biochemical; settings: kinetic (KIN) reads, read-out: FXIa KIN Inh IC50
Sequence of Factor XIa (P03951 388-625 limits assumed): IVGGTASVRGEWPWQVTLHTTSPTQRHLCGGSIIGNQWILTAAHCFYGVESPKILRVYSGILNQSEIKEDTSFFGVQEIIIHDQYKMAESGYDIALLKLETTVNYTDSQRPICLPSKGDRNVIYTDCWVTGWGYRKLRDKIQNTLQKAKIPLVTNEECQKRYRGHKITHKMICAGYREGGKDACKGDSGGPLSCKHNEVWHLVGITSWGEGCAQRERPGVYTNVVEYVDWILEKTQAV
Sequence of Factor XIa (P03951 19-387 partner limits assumed): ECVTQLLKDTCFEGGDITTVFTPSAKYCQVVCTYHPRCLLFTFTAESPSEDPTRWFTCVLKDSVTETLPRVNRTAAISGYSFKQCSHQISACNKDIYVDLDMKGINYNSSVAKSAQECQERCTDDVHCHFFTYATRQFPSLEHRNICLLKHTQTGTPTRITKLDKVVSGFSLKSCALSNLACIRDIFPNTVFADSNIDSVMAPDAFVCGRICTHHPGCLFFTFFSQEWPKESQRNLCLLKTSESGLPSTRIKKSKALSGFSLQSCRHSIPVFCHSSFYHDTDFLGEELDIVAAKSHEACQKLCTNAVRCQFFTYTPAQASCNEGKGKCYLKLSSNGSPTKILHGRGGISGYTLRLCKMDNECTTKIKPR
Description: Biological Example 1: Factor XIa Inhibition Assay Utilizing a Fluorophore-Quencher Pair Peptide Substrate A fluorescence intensity (FLINT) based assay was used to monitor inhibition of Factor XIa. The peptide substrate, 5Fam-[…]-K5Tamra (purchased from New England Peptide) was chosen based on the FXI sequence. Conversion of zymogen FXI to its activated form, FXIa, occurs by proteolytic cleavage by […] at two sites, Arg146 and Arg180. The custom peptide used in this assay was based on the Arg146 cleavage site of FXI. The peptide substrate was designed with a fluorophore-quencher pair, where the fluorescence is quenched until FXIa cleaves the 8-mer peptide after the Arg residue.
The Factor XIa FLINT assay was used with the following 5Fam-[…]-K5Tamra assay buffer: 50 mM Tris, pH 7.5, 100 mM NaCl, 5 mM CaCl2, 0.1 mg/mL BSA, 0.03% CHAPS. Assay buffer was prepared by mixing all ingredients fresh. 5Fam-[…]-K5Tamra peptide substrate was first prepared at 10 mM in 100% DMSO, then diluted to 3 mM in 100% DMSO. Assay buffer was then added directly to the 3 mM stock of substrate to prepare the 30 μM 2× working concentration (15 μM final concentration). The 2× Factor XIa stock solution was prepared by diluting 6.562 μM stock in 1× assay buffer for a […].
Test compound(s) were run in an 11-point, 3-fold serial dilution with a final top compound concentration of 100 nM. Final DMSO in assay was 2%. FXIa was preincubated with compound for 30-minutes and then substrate was added to initiate the reaction. The assay was run with kinetic (KIN) reads at 5 min intervals over 30 minutes. […] More specifically, the assay was run as follows: • 100 nL of 0.01 mM test compound was dispensed into black 384-well non-binding Greiner BioOne 784900 plate for 0.1 μM final concentration; • 5 μL of 1× assay buffer was dispensed to column 24 (low control) and 5 μL 2× Factor XIa solution was dispensed to columns 1-23 (column 23 high control); • the plate was centrifuged with a “cover” plate at 500 rpm for 1 min • the plate was pre-incubated for 30 minutes at room temperature with plate covered; • 5 μL of 2×5Fam-[…]-K5Tamra peptide substrate was dispensed into the entire plate, columns 1-24; • the plate was centrifuged with a “cover” plate at 500 rpm for 1 min; • the plate was read monitoring fluorescence intensity on the BMG PHERAStar at room temperature, using fluorescence module 485 nm/520 nm.
as §1
% inhibition=((HC−LC)−(compound−LC)/(HC−LC))*100 where LC−low control=mean signal of no Factor XIa or 100% inhibition of Factor XIa; HC−high control=mean signal of Factor XIa+5Fam-[…]-K5Tamra peptide substrate with DMSO only.
as §2
as §3, with “Factor XIa+5Fam-[…]-K5Tamra” for “human kallikrein enzyme+Z-Gly-Pro-Arg-AMC”, “Factor XIa” for “human kallikrein enzyme”, “Factor XIa;” for “human kallikrein enzyme;”

Row | Compound | IC50 ([1]; unit μM) [µM] | IC50 ([2]; unit μM) [µM] | IC50 ([1]; values in nM) [µM] | IC50 ([2]; values in nM) [µM]
1 | C[C@H]1C[C@@H](c2ncc(-c3ccc4nccn4c3)[nH]2)n2c1cc(-c1c(-n3cnnn3)ccc(Cl)c1F)cc2=O (stereo in doubt) [Example 48, (1S*,3S*)-7-(3-Chloro-2-fluoro-6-(1H-tetrazol-1-yl)phenyl)-3-(5-(imidazo[1,2-a]pyridin-6-yl)-1H-imidazol-2-yl)-1-methyl-2,3-dihydroindolizin-5(1H)-one] | > 10 | 3 |  | 
2 | C[C@@H]1C[C@@H](c2ncc(-c3ccnc(C(F)(F)F)c3)[nH]2)n2c1nc(-c1c(-n3cnnn3)ccc(Cl)c1F)cc2=O (relative stereo) [Example 147, (6S*,8R*)-2-(3-Chloro-2-fluoro-6-(1H-tetrazol-1-yl)phenyl)-8-methyl-6-(5-(2-(trifluoromethyl)pyridin-4-yl)-1H-imidazol-2-yl)-7,8-dihydropyrrolo[1,2-a]pyrimidin-4(6H)-one] | > 10 | > 10 |  | 
3 | Nc1ccc(-c2cnc(C3CCCCc4cc(-c5c(-n6cnnn6)ccc(Cl)c5F)cc(=O)n43)[nH]2)c(F)n1 (stereo not drawn) [Cmpd (IV), 6-(5-(6-amino-2-fluoropyridin-3-yl)-1H-imidazol-2-yl)-2-(3-chloro-2-fluoro-6-(1H-tetrazol-1-yl)phenyl)-7,8,9,10-tetrahydropyrido[1,2-a]azepin-4(6H)-one] |  |  | 0.16 | 0.048
4 | Cc1nc(N)sc1-c1cnc([C@@H]2CC3(CC3)c3nc(-c4c(-n5cnnn5)ccc(Cl)c4F)cc(=O)n32)[nH]1 [Example 131, (S)-6′-(5-(2-Amino-4-methylthiazol-5-yl)-1H-imidazol-2-yl)-2′-(3-chloro-2-fluoro-6-(1H-tetrazol-1-yl)phenyl)-6′,7′-dihydro-4′H-spiro[cyclopropane-1,8′-pyrrolo[1,2-a]pyrimidin]-4′-one] |  |  | 0.669 | 0.0922
5 | Cc1nc(N)ccc1-c1cnc([C@@H]2C[C@H](C)c3cc(-c4c(-n5cnnn5)ccc(Cl)c4F)cc(=O)n32)[nH]1 (relative stereo) [Example 51, (1*S,3*S)-3-(5-(6-Amino-2-methylpyridin-3-yl)-1H-imidazol-2-yl)-7-(3-chloro-2-fluoro-6-(1H-tetrazol-1-yl)phenyl)-1-methyl-2,3-dihydroindolizin-5(1H)-one] |  |  | 0.0492 | 0.0008
6 | Nc1ncc(-c2cnc([C@H]3CC4(CC4)c4cc(-c5c(-n6cnnn6)ccc(Cl)c5F)cc(=O)n43)[nH]2)s1 [Example 17, (R)-3′-(5-(2-Aminothiazol-5-yl)-1H-imidazol-2-yl)-7′-(3-chloro-2-fluoro-6-(1H-tetrazol-1-yl)phenyl)-2′,3′-dihydro-5′H-spiro[cyclopropane-1,1′-indolizin]-5′-one] | 9.05 |  |  | 0.89
7 | C[C@H]1C[C@H](c2ncc(-c3ccc(N)nc3Cl)[nH]2)n2c1cc(-c1c(-n3cnnn3)ccc(Cl)c1F)cc2=O (relative stereo) [Example 37, (1*S,3*R)-3-(5-(6-Amino-2-chloropyridin-3-yl)-1H-imidazol-2-yl)-7-(3-chloro-2-fluoro-6-(1H-tetrazol-1-yl)phenyl)-1-methyl-2,3-dihydroindolizin-5(1H)-one] | 7.8 |  |  | 0.283
8 | C[C@H]1C[C@@H](c2ncc(-c3sc(N)nc3C(F)(F)F)[nH]2)n2c1cc(-c1c(-n3cnnn3)ccc(Cl)c1F)cc2=O [Example 27, (1S,3S)-3-(5-(2-Amino-4-(trifluoromethyl)thiazol-5-yl)-1H-imidazol-2-yl)-7-(3-chloro-2-fluoro-6-(1H-tetrazol-1-yl)phenyl)-1-methyl-2,3-dihydroindolizin-5(1H)-one] | 2.4 |  |  | 0.483
9 | C[C@@H]1C[C@@H](c2ncc(-c3ccc(NC(=O)C4CC4)nc3)[nH]2)n2c1nc(-c1c(-n3cnnn3)ccc(Cl)c1F)cc2=O (stereo in doubt) [Example 122, N-(5-(2-((6*S,8*R)-2-(3-Chloro-2-fluoro-6-(1H-tetrazol-1-yl)phenyl)-8-methyl-4-oxo-4,6,7,8-tetrahydropyrrolo[1,2-a]pyrimidin-6-yl)-1H-imidazol-5-yl)pyridin-2-yl)cyclopropanecarboxamide] | 5.6 |  |  | 0.095
10 | C[C@@H]1C[C@H](c2cnc(-c3ccc(N)nc3F)[nH]2)n2c1cc(-c1c(-n3cnnn3)ccc(Cl)c1F)cc2=O (stereo in doubt) [Example 55, (1R*,3R*)-3-(2-(6-Amino-2-fluoropyridin-3-yl)-1H-imidazol-5-yl)-7-(3-chloro-2-fluoro-6-(1H-tetrazol-1-yl)phenyl)-1-methyl-2,3-dihydroindolizin-5(1H)-one] |  |  | 0.0425 | 0.0011
11 | C[C@H]1C[C@@H](c2ncc(-c3cc4c(cn3)NC(=O)CC4)[nH]2)n2c1cc(-c1c(-n3cnnn3)ccc(Cl)c1F)cc2=O (single isomer, unassigned) [Example 9, 6-(2-((1*S,3*S)-7-(3-Chloro-2-fluoro-6-(1H-tetrazol-1-yl)phenyl)-1-methyl-5-oxo-1,2,3,5-tetrahydroindolizin-3-yl)-1H-imidazol-5-yl)-3,4-dihydro-1,7-naphthyridin-2(1H)-one] |  |  | ~0.0214 | 0.0069
12 | C[C@H]1C[C@@H](c2ncc(-c3ccc4nn(C)cc4c3)[nH]2)n2c1cc(-c1c(-n3cnnn3)ccc(Cl)c1F)cc2=O (stereo in doubt) [Example 46, (1*S,3*S)-7-(3-Chloro-2-fluoro-6-(1H-tetrazol-1-yl)phenyl)-1-methyl-3-(5-(2-methyl-2H-indazol-5-yl)-1H-imidazol-2-yl)-2,3-dihydroindolizin-5(1H)-one] |  |  | 0.488 | 0.431
